# Values quoted from earlier work as cited in patent US6486182B1, “Mutual prodrugs of amlodipine and atorvastatin” (Pfizer Inc, priority 1999, dated 2002).
# What was measured:
# [1] = system: smooth muscle cell migration; details: see PCT/EP95/00847
# calcium channel = details: see PCT/EP94/02697
compound,measurement,setting,value
"CCOC(=O)C1=C(COCCN)NC(C)=C(C(=O)OC)C1c1ccccc1Cl (single isomer, unassigned) [R(+) isomer, Amlodipine]",inhibition of smooth muscle cell migration,[1],potent inhibitor
same,calcium channel blocking activity,calcium channel,little or no calcium channel blocking activity
